Experimental data as given in patent US12195427B2, “MASP-2 inhibitors and methods of use” (priority 2018, dated 2025).

Target: MASP-2 CCP2-SP (Homo sapiens (Human), UniProt O00187)
Assay: MASP-2 co-crystallization, X-ray crystallography and structure analysis (H-bonds, van der Waals contacts);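 on Ligand-pharmacophore element distance, pharmacophore element C2: distance from averaged pharmacophore element to bound ligand; missing value means element absent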;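 on Ligand-pharmacophore element distance, pharmacophore element C3: distance from averaged pharmacophore element to bound ligand; missing value means element absent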;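 on Ligand-pharmacophore element distance, pharmacophore element C4: distance from averaged pharmacophore element to bound ligand; missing value means element absent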;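 on Ligand-pharmacophore element distance, pharmacophore element C5: distance from averaged pharmacophore element to bound ligand; missing value means element absent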
Design: van der Waals contact distance, MASP-2 HIS 483 atom CD2 / van der Waals contact distance, MASP-2 HIS 483 atom NE2 / van der Waals contact distance, SER 654 C to compound atom / van der Waals contact distance, SER 654 O to compound atom / van der Waals contact distance, TRP 655 C to compound atom / van der Waals contact distance, MASP-2 GLY 528 atom CA / van der Waals contact distance TRP 655 atom CZ3 / van der Waals contact distance TRP 655 atom N / van der Waals contact distance TRP 655 atom CE3 / van der Waals contact distance GLY 656 atom C / van der Waals contact distance GLY 656 atom CA / van der Waals contact distance GLY 656 atom O / van der Waals contact distance, MASP-2 TYR 607 atom CD1 / van der Waals contact distance, MASP-2 PRO 606 atom O / d(C3,CA1) / d(CA1,N1)2 / d(H4,O1) / d(H4,O2) / d(O1,O2) / d(CA1,O2) / d(CA6,O1) / d(CA6,O2) / d(CA1,C5) / d(O2,H3) / d(N2,C2) / d(CA5,N2) / d(N2,C4) / d(N2,C6) / d(N2,CA3) / d(N2,O3) / d(O4,H2): unit not given beside the values
Details: for Ligand-pharmacophore element distance, pharmacophore element C2 / Ligand-pharmacophore element distance, pharmacophore element C3 / Ligand-pharmacophore element distance, pharmacophore element C4 / Ligand-pharmacophore element distance, pharmacophore element C5 / Ligand-pharmacophore element distance, pharmacophore element C6 / Ligand-pharmacophore element distance, pharmacophore element C7 / Ligand-pharmacophore element distance, pharmacophore element CA1 / Ligand-pharmacophore element distance, pharmacophore element CA2 / Ligand-pharmacophore element distance, pharmacophore element CA3 / Ligand-pharmacophore element distance, pharmacophore element CA4 / Ligand-pharmacophore element distance, pharmacophore element CA5 / Ligand-pharmacophore element distance, pharmacophore element CA6: Table A4-1; for d(CA1,C5) / d(CA1,O1) / d(CA1,O2) / d(CA1,O4) / d(H4,O1) / d(H4,O2) / d(O1,O2) / d(O4,H2): Table A5-1 pharmacophore: distance between elements, S2/S1 region; for d(N2,C2) / d(N2,CA2) / d(O2,H3) / d(O2,N2): Table A5-2 pharmacophore distance, S3/S4 region; for a(C5, CA1, O1) / a(CA1, O1, O2) / a(CA1, O4, H2) / a(O1, CA1, O4) / a(O1, O2, H4): Table A6-1 pharmacophore angle; for a(O1, O2, H3) / a(O1, O2, N2) / a(O2, N2, C2) / a(O2, N2, CA2): Table A6-2 pharmacophore angle; for Pharmacophore torsion angle a(C5, CA1, O1, H4) / Pharmacophore torsion angle a(H4, O1, O2, H3) / Pharmacophore torsion angle a(H4, O1, O2, N2) / Pharmacophore torsion angle a(O1, H4, O2, CA1) / Pharmacophore torsion angle a(O1, O2, N2, C2): Table A7-1; for Pharmacophore torsion angle a(C5, CA1, O1, H4) / Pharmacophore torsion angle a(H4, O1, O2, H3) / Pharmacophore torsion angle a(H4, O1, O2, N2) / Pharmacophore torsion angle a(O1, H4, O2, CA1) / Pharmacophore torsion angle a(O1, O2, N2, C2) / Pharmacophore torsion angle a(O1, O2, N2, CA2): between pharmacophore elements of the bound compound; for Pharmacophore torsion angle a(O1, O2, N2, CA2): Table A7-2
Source text: This example illustrates the preparation of recombinant MASP-2 protein, based on UniProt O00187, human mannan-binding lectin serine protease 2. Expression constructs for human MASP-2 CCP2-SP and CCP2-SP-6HIS were generated for recombinant expression in E. coli cells.
Typically, crystallization hits were obtained by screening against […] 96-well crystallization reagent kits (GRAS6, GRAS2, Hampton Research; MORPHEUS, Molecular Dimensions; Wizard 1&2 Cryo, Rigaku Reagents) and crystal growth was inspected by optical microscopy. Crystals were used directly or further optimized for X-ray diffraction. Crystals were captured with cryogenic loops and dipped into liquid nitrogen directly or cryoprotected with a 20% glycerol in crystallization formulation before flash-cooling in liquid nitrogen.
Thereafter crystals are transferred once or twice for soaking within the crystallization solution containing the MASP-2 inhibitor.
Crystals were diffracted with synchrotron X-rays of […] and X-ray diffraction datasets were collected at beamlines SSRL BL9-2, BL14-1, BL12-2 as well as ALS sector 5 using Dectris Pilatus and Eiger detectors. Structures were determined by molecular replacement using portions of the structure 1Q3X as search models and partially refined with Buster 2.10.2 or Refmac 5.8. […] When multiple ligand poses were observed, for instance arising from multiple molecules in the asymmetric unit or refined dual poses within the same molecule, only one pose was selected and analyzed.
LigPlot+ calls these ‘nonbonded contacts’ or ‘hydrophobic contacts’. Despite the name, there are atom pairings that include possible H-bonds. Thus, in some instances, the Table A2 also contains H-bond interactions.

Chain of MASP-2 CCP2-SP (O00187 445-686): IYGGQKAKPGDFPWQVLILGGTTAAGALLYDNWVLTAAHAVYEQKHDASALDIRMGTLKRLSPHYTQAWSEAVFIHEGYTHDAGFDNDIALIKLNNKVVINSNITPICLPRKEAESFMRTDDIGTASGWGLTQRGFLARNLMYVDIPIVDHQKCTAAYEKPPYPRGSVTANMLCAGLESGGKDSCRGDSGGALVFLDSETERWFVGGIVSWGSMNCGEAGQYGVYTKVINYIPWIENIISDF
Chain of MASP-2 CCP2-SP (O00187 364-432 partner): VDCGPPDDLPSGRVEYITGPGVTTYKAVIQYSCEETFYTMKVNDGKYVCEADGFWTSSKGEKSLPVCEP

| SMILES | Ligand-pharmacophore element distance, pharmacophore element C2 | Ligand-pharmacophore element distance, pharmacophore element C3 | Ligand-pharmacophore element distance, pharmacophore element C4 | Ligand-pharmacophore element distance, pharmacophore element C5 | Ligand-pharmacophore element distance, pharmacophore element C6 | Ligand-pharmacophore element distance, pharmacophore element C7 | Ligand-pharmacophore element distance, pharmacophore element CA1 | Ligand-pharmacophore element distance, pharmacophore element CA2 | Ligand-pharmacophore element distance, pharmacophore element CA3 | Ligand-pharmacophore element distance, pharmacophore element CA4 | Ligand-pharmacophore element distance, pharmacophore element CA5 | Ligand-pharmacophore element distance, pharmacophore element CA6 | d(CA1,C5) | d(CA1,O1) | d(CA1,O2) | d(CA1,O4) | d(H4,O1) | d(H4,O2) | d(O1,O2) | d(O4,H2) | further results |
| --- | --- | --- | --- | --- | --- | --- | --- | --- | --- | --- | --- | --- | --- | --- | --- | --- | --- | --- | --- | --- | --- |
| C[C@H](NC(=O)[C@H]1C[C@@H](c2ccccc2)CCN1)C(=O)NCc1cc(Cl)ccc1O.Cl [1078_7] | 0.64 | 0 | 0 | 0.61 | 0 | 0 | 1.69 | 0.55 | 0 | 0 | 0 | 0 | 3.14 | 4.83 | 4.83 | 2.77 | 2.08 | 2.49 | 3.35 | 0.97 | d(N2,C2): 1.47; d(N2,CA2): 5.74; d(O2,H3): 3.26; d(O2,N2): 3.04; a(C5, CA1, O1): 158.86; a(CA1, O1, O2): 110.36; a(CA1, O4, H2): 126.10; a(O1, CA1, O4): 67.29; a(O1, O2, H4): 86.28; a(O1, O2, H3): 137.32; a(O1, O2, N2): 140.50; a(O2, N2, C2): 114.22; a(O2, N2, CA2): 151.33; Pharmacophore torsion angle a(C5, CA1, O1, H4): 30.48; Pharmacophore torsion angle a(H4, O1, O2, H3): −121.10; Pharmacophore torsion angle a(H4, O1, O2, N2): −116.26; Pharmacophore torsion angle a(O1, H4, O2, CA1): −57.85; Pharmacophore torsion angle a(O1, O2, N2, C2): 144.61; Pharmacophore torsion angle a(O1, O2, N2, CA2): 143.84 |
| C[C@H](NC(=O)[C@H]1C[C@@H](c2ccccc2)CCN1)C(=O)NCc1cc(Cl)ccc1O.Cl [1078_8] | 0.85 | 0 | 0 | 0.78 | 0 | 0 | 1.67 | 0.92 | 0 | 0 | 0 | 0 | 3.10 | 4.33 | 4.59 | 2.75 | 2.28 | 2.53 | 2.73 | 0.98 | d(N2,C2): 1.44; d(N2,CA2): 5.66; d(O2,H3): 2.69; d(O2,N2): 2.85; a(C5, CA1, O1): 159.05; a(CA1, O1, O2): 112.99; a(CA1, O4, H2): 125.48; a(O1, CA1, O4): 73.28; a(O1, O2, H4): 111.09; a(O1, O2, H3): 140.66; a(O1, O2, N2): 145.13; a(O2, N2, C2): 125.44; a(O2, N2, CA2): 153.81; Pharmacophore torsion angle a(C5, CA1, O1, H4): 5.11; Pharmacophore torsion angle a(H4, O1, O2, H3): −134.33; Pharmacophore torsion angle a(H4, O1, O2, N2): −122.87; Pharmacophore torsion angle a(O1, H4, O2, CA1): −58.50; Pharmacophore torsion angle a(O1, O2, N2, C2): 135.84; Pharmacophore torsion angle a(O1, O2, N2, CA2): 143.43 |
| C[C@H](NC(=O)[C@H]1C[C@@H](c2ccccc2)CCN1)C(=O)NCc1cc(Cl)ccc1O.Cl [1078_9] | 0.67 | 0 | 0 | 0.46 | 0 | 0 | 1.62 | 0.56 | 0 | 0 | 0 | 0 | 3.11 | 4.31 | 4.77 | 2.74 | 2.21 | 2.49 | 3.11 | 0.98 | d(N2,C2): 1.46; d(N2,CA2): 5.71; d(O2,H3): 3.06; d(O2,N2): 2.89; a(C5, CA1, O1): 161.68; a(CA1, O1, O2): 117.85; a(CA1, O4, H2): 128.05; a(O1, CA1, O4): 66.67; a(O1, O2, H4): 97.24; a(O1, O2, H3): 142.04; a(O1, O2, N2): 146.14; a(O2, N2, C2): 119.45; a(O2, N2, CA2): 153.36; Pharmacophore torsion angle a(C5, CA1, O1, H4): 14.92; Pharmacophore torsion angle a(H4, O1, O2, H3): −116.62; Pharmacophore torsion angle a(H4, O1, O2, N2): −110.81; Pharmacophore torsion angle a(O1, H4, O2, CA1): −50.72; Pharmacophore torsion angle a(O1, O2, N2, C2): 144.64; Pharmacophore torsion angle a(O1, O2, N2, CA2): 146.06 |
